Results: patent US11737459B2, “Use of nootkatone to kill sap-sucking insects” (EVOLVA SA, priority 2016, dated 2023)
Several values for one entry are separate records, joined by “and”; a condition that tells them apart may be missing. Equal entries are not always repeated. Where two headings read alike, the source gives them in different places.

Assays:
[1] = system: honey bee (Apis mellifera); settings: for 48-hour Mortality (%), replicates A-C: individual replicates
Method: A negative control group and a solvent control group were maintained concurrently. Three replicate test chambers were maintained in each control and treatment group, with 10 bees in each test chamber. […] The positive control test was conducted concurrently with the definitive test. […] OECD Guidelines for Testing of Chemicals. […] The cumulative mortality observed in the test groups was used to determine the LD50, LOEC, and NOEC.
The primary stock served as a dosing solution for the highest concentration (100 μg a.i./bee). […] Prior to dosing, young adult bees were removed from the frames, distributed into holding containers, and returned to the holding incubator. Approximately 50 bees were impartially placed in each of eight containers in preparation for use in the various treatment and control groups as needed during the dosing procedure.
The test chambers were stainless steel cylinders measuring approximately 9 cm in diameter and 9 cm high, with perforations for ventilation. Each end of the test chamber was covered with a disposable plastic petri dish (approximately 10 cm in diameter), and the bottom petri dish was lined with filter paper. An inverted glass vial containing approximately 10 mL of 50% (w/v) sucrose solution was inserted through the lid of the chamber. The opening of the vial was covered with gauze, which prevented leakage allowing the bees to feed ad libitum throughout the test period. The test chambers were identified by study number, dosage group, and replicate.
Prior to dosing, the bees in each holding container were immobilized with nitrogen. While anesthetized, bees were individually dosed with the appropriate dosing solution. Bees in the test substance, positive control, and solvent control groups were dosed by administering a 4 μL droplet of the appropriate dosing solution to the dorsal side of the thorax of each bee with an adjustable micropipette. Ten bees were impartially placed in each test chamber. Bees in the positive control treatment group were handled and dosed in the same manner. Solvent control bees were dosed with acetone. Negative control bees were not dosed but were handled identically to the treated bees. After dosing, test chambers were distributed into a testing incubator by indiscriminate draw.
The bees were maintained in continuous darkness during the test except during periods of dosing and observations.
The bees were observed and counted periodically to evaluate mortality and signs of toxicity or abnormal behavior.
The negative control group was used for comparison with the treatment groups.

[2] = system: Aphid (Schizaphis gramium); assay: Laboratory filter-paper bioassay of aphid susceptibility to nootkatone; type: in vivo; settings: 1% v/v nootkatone in ethanol on filter paper, 24 hours post introduction
Text: This example describes a laboratory bioassay in which groups of aphids were exposed to a nootkatone-containing composition to determine aphid susceptibility to nootkatone.
One milliliter of a 1% v/v nootkatone in ethanol was applied directly to 9 cm filter paper discs using a micropipette. The filter papers were allowed to dry completely and cut to the appropriate size prior to the start of the test. Pure ethanol was used as a control.
Treated and untreated filter papers were cut into 2.5 inch (6.35 cm) squares and folded into envelopes to serve as containers for the test. Five replicates of 10 aphids were tested per treatment. After the aphids were placed inside, the openings were sealed using clips so that the aphids could not escape.
Aphids were observed after 24 hours post-introduction to the test containers.
(§1) Readings were discontinued if treated mortality reached 100%, or control mortality exceeded 20%.

[3] = system: House fly (Musca domestica); assay: Laboratory filter-paper bioassay, house flies exposed to nootkatone; type: in vivo; design: key to Dead, Means: % mortality of insects (treated mortality up to 100%); KD, Means / Affected, Means: unit not given here; settings: 1% v/v nootkatone on filter paper
Text: (§2) This example describes a laboratory bioassay in which groups of house flies and red flour beetles were exposed to a nootkatone-containing composition to determine their susceptibilities to low concentrations of nootkatone.
(§3) One milliliter of a 1% v/v nootkatone in ethanol was applied directly to 9 cm filter paper discs using a micropipette. The filter papers were allowed to dry completely and cut to the appropriate size prior to the start of the test. A negative control group (consisting of untreated replicates—ethanol only) was also assessed for comparative purposes.
(§4) Treated and untreated filter papers were cut so that they covered the bottom of a suitable container for each test species as follows:
Flies—Five replicates of 10 insects were tested. Inverted 10 ounce (295 mL) clear plastic cups with a 0.5 inch (1.27 cm) hole burned into the center of the bottom, and with the sides coated with Fluon (or similar) were used as the treatment containers. The bottoms of the containers consisted of Petri dish lids 3.54 inches ([…]) in diameter lined with a treated filter paper circle the same diameter. The cup was placed over the filter paper in the lid and both were secured in place using 2 rubber bands. The insects were introduced through the hole in the cup, and a plastic disc was placed over the opening to prevent escapes.
as §1

[4] = system: Red flour beetle (Tribolium castaneum); assay: Laboratory filter-paper bioassay, red flour beetles exposed to nootkatone; type: in vivo; design: unit not given here; settings: 1% v/v nootkatone on filter paper
Text: as §2, §3, §4
Flour beetles—Five replicates of 10 insects were tested. A Petri dish lid 3.54 inches (9 cm) in diameter was inverted and served as the substrate for a 2.75 inch (7 cm) treated filter paper circle. The small Petri dish bottom was inverted over the paper and had its sides treated with Fluon (or similar) to prevent climbing and force exposure with the filter paper. The entire Petri dish was enclosed with two rubber bands.
as §1

What does the source list for `C=C(C)[C@@H]1CCC2=CC(=O)C[C@@H](C)[C@]2(C)C1` [Nootkatone, nootkatone]?
48-hour Mortality Mean (%) ([1]; 6.25 μg a.i./bee topical): 10%; 48-hour Mortality (%), replicates A-C ([1]; 6.25 μg a.i./bee topical): 0% and 10% and 20%; 48-hour Mortality Mean (%) ([1]; 12.5 μg a.i./bee topical): 10%; 48-hour Mortality (%), replicates A-C ([1]; 12.5 μg a.i./bee topical): 0% and 10% and 20%; 48-hour Mortality Mean (%) ([1]; 25 μg a.i./bee topical): 0%; 48-hour Mortality (%), replicates A-C ([1]; 25 μg a.i./bee topical): 0%; 48-hour Mortality Mean (%) ([1]; 50 μg a.i./bee topical): 3.3%; 48-hour Mortality (%), replicates A-C ([1]; 50 μg a.i./bee topical): 0% (2×) and 10%; 48-hour Mortality Mean (%) ([1]; 100 μg a.i./bee topical): 13.3%; 48-hour Mortality (%), replicates A-C ([1]; 100 μg a.i./bee topical): 10% (2×) and 20%; NOEC (No Observable Effect Concentration) ([1]; 48-hour mortality, highest concentration tested): 100 μg a.i./bee; Mortality in the treatment groups at the end of the test ([1]; all doses 6.25 to 100 μg a.i./bee, 48 hours, listed as Nootkatone 98%): less than 50%; Affected, Means [2]: 100.0%; Dead, Means [2]: 94.0%; KD (knockdown), Means [2]: 6.0%; Dead, Means ([2]; listed as nootkatone): 94%; KD (knockdown), Means ([2]; listed as nootkatone): 6%; Affected, Means ([3]; 30 minutes post introduction): 0.0; Dead, Means ([3]; 30 minutes post introduction): 0.0; KD, Means ([3]; 30 minutes post introduction): 0.0; Affected, Means ([3]; 1 hour post introduction): 0.0; Dead, Means ([3]; 1 hour post introduction): 0.0; KD, Means ([3]; 1 hour post introduction): 0.0; Affected, Means ([3]; 4 hours post introduction): 0.0; Dead, Means ([3]; 4 hours post introduction): 0.0; KD, Means ([3]; 4 hours post introduction): 0.0; Affected, Means ([3]; 24 hours post introduction): 14.0; Dead, Means ([3]; 24 hours post introduction): 2.0; KD, Means ([3]; 24 hours post introduction): 12.0; Affected, Means ([3]; 48 hours post introduction): 28.0; Dead, Means ([3]; 48 hours post introduction): 28.0; KD, Means ([3]; 48 hours post introduction): 0.0; Affected, Means ([3]; 72 hours post introduction): 44.0; Dead, Means ([3]; 72 hours post introduction): 42.0; KD, Means ([3]; 72 hours post introduction): 2.0; Affected, Means ([4]; 30 minutes post introduction): 0.0; Dead, Means ([4]; 30 minutes post introduction): 0.0; KD, Means ([4]; 30 minutes post introduction): 0.0; Affected, Means ([4]; 1 hour post introduction): 0.0; Dead, Means ([4]; 1 hour post introduction): 0.0; KD, Means ([4]; 1 hour post introduction): 0.0; Affected, Means ([4]; 4 hours post introduction): 0.0; Dead, Means ([4]; 4 hours post introduction): 0.0; KD, Means ([4]; 4 hours post introduction): 0.0; Affected, Means ([4]; 24 hours post introduction): 4.2; Dead, Means ([4]; 24 hours post introduction): 0.0; KD, Means ([4]; 24 hours post introduction): 4.2; Affected, Means ([4]; 48 hours post introduction): 6.4; Dead, Means ([4]; 48 hours post introduction): 6.4; KD, Means ([4]; 48 hours post introduction): 0.0; Affected, Means ([4]; 72 hours post introduction): 10.9; Dead, Means ([4]; 72 hours post introduction): 10.9; KD, Means ([4]; 72 hours post introduction): 0.0
